Source: patent US9642897B2, “Treatment of bone diseases” (THE UNIVERSITY OF SYDNEY, priority 2011, dated 2017)

Key:
RUNX2, OCN and OPN = assay: Osteogenic gene expression (RUNX2, OCN, OPN) in differentiating MSC; format: cell-based, human
Method: Subsequently, the effect of chemical inhibition/stimulation of the intermediate and end products of kynurenine activation on osteogenic differentiating MSC was then characterised.
These compounds were added to the MSC media on day one of differentiation. […] Media was changed every three days. […]

[1] = Pharmacokinetics of oral PA: serum concentrations by GC-MS; format: in vivo, C57BL/6 mice
Description: (§1) Nine-month-old oophorectomised (OVX) and SHAM-operated C57BL/6 mice (n=24 per group) were obtained from the Animal Resources Centre (Perth, Wash.). After 2 weeks of acclimation, mice were divided into four groups (Table 2) and received treatment in their drinking water for a total of 6 weeks. Mice treated with plain water were used as controls. Mice were housed in cages in a limited access room.
For absorption analysis of minerals in the duodenum, tissue was dissected and left to dry up in room temperature. 100 mg of tissue were dissolved in nitric acid and concentrations of nine minerals was quantified in the tissue homogenates using an Agilent 5973 mass selective detector via an auto-sampler Agilent Technologies 7683, and controlled using Agilent ChemStation software (Agilent, Santa Clara, Calif., USA). For pharmacokinetic analysis of PA, serum of Pa- and vehicle-treated animals was obtained by centrifugation. 1 μl of serum was injected into an Agilent 6890 gas chromato-graph, interfaced to an Agilent 5973 mass selective detector via an auto-sampler Agilent Technologies 7683, and controlled using Agilent ChemStation software (Agilent, Santa Clara, Calif., USA).

[2] = Therapeutic safety of oral PA: weight, water consumption, survival; format: in vivo, C57BL/6 mice; details: for Weight: after 6 weeks; for Water left: initial volume 500 mL, weekly average
Method: as §1
Water left in the bottle (initial volume of 500 mL) was also quantified every week. […] These volumes correspond with the drinking pattern previously reported in this mouse model. (iii) Effect of Oral PA on Mineral Absorption in OVX Mice

[3] = system: OVX C57BL/6 mice (osteoporosis model); assay: Quantitative μCT of femur and vertebrae in Sham and OVX mice; format: in vivo; details: oral PA 6 weeks
Method: Nine-month-old oophorectomised (OVX) and SHAM-operated C57BL/6 mice (n=24 per group) were obtained from the Animal Resources Centre (Perth, Wash.). After 2 weeks of acclimation, mice were divided into four groups (Table 2) and received treatment in their drinking water for a total of 6 weeks. Mice treated with plain water were used as controls. Mice were housed in cages in a limited access room. Mice were administered a lethal dose of anaesthetic at the indicated times, exsanguinated, and imaged using a Faxitron MX20 equipped with an FPX-2 Imaging system (Dalsa Medoptics, Waterloo, Ontario, Canada). μ-CT was performed on the left femur and lumbar vertebrae after removal of soft tissues and overnight fixation in 4% paraformaldehyde. The distal metaphysis of the femur and the body of the vertebrae were scanned with a Skyscan 1072 micro-CT instrument (Skyscan, Antwerp, Belgium). Image acquisition was performed at 100 kV and 98 μA, with a 0.9° rotation between frames. The two-dimensional images were used to generate three-dimensional reconstructions to obtain quantitative data with the 3D Creator software supplied with the instrument. Nomenclature and abbreviations of 3D-μCT parameters follow the recommendations of the American Society of Bone and Mineral Research (see Bouxsein et al. (2010), “Guidelines for assessment of bone microstructure in rodents using micro-computed tomography”, J Bone Miner Res., 25: 1468-1486).

[4] = system: OVX C57BL/6 mice (osteoporosis model); assay: Bone histology and dynamic histomorphometry in Sham and OVX mice; format: in vivo
Description: as §1
For dynamic histomorphometry, tetracycline labelling was achieved through the intraperitoneal injection of demeclocycline (20 mg/kg) (Sigma Chemicals, St. Louis, Mo., USA) to the three treated groups at 5 and 2 days before sacrifice. One side femur from each animal in each group was removed at the time of killing, fixed in 70% ethanol, dehydrated, and embedded undecalcified in methylmethacrylate (J-T Baker, Phillipsburg, N.J., USA). At 50 μm intervals, longitudinal sections of 5 and 8 μm thick were cut using a polycut-E microtome (Reichert-Jung Leica, Heerbrugg, Switzerland), placed on gelatine-coated glass slides, deplastified and stained with Goldner's trichrome. Histomorphometry was done with a semi-automatic image analysing system combining a microscope equipped with a camera lucida and digitizing tablet linked to a computer using the OsteoMeasure Software (Osteometrics Inc., Decatur, Ga., USA). Nomenclature and abbreviations of histomorphometric parameters follow the recommendations of the American Society of Bone and Mineral Research (see Parfitt et al. (1987), “Bone histomorphometry: Standardization of nomenclature, symbols and units”, J Bone Miner Res., 2: 595-610.)

[5] = highest dose (100 μM), 14 days post-induction

Q: Which “relative gene expression of RUNX2, OCN and OPN” value (RUNX2, OCN and OPN; differentiating MSC) does the source give for `O=C(O)c1ccccn1` [PA, pyridine-2-carboxylic acid] here?
A: increased

Q: What about the “RE of RUNX2” value (RUNX2, OCN and OPN; [5]) of the same compound?
A: 1.43

Q: And the RE of osteocalcin (RUNX2, OCN and OPN; [5])?
A: 1.93

Q: What about the RE of osteopontin (RUNX2, OCN and OPN; [5]) of the same compound?
A: 1.35

Q: And the “serum concentrations of PA at higher dose” value ([1]; higher dose vs 0.5 gm/Kg/d)?
A: not followed by higher serum concentrations

Q: And the “serum concentrations of PA, OVX vs SHAM counterpart” value ([1]; low dose of PA)?
A: lower serum concentrations

Q: What about the “serum concentrations of PA” value ([1]; oral PA in drinking water, 6 weeks, Sham and OVX mice) of the same compound?
A: increased in the treated groups in a dose-dependent manner

Q: What about the Weight ([2]; OVX, PA250 (250 mg/kg/d)) of the same compound?
A: 26 ± 1.6 gm

Q: And the Water left ([2]; OVX, PA250)?
A: 195 ± 28 ml/week

Q: And the Weight ([2]; OVX, PA500 (500 mg/kg/d))?
A: 28 ± 0.4 gm

Q: And the Water left ([2]; OVX, PA500)?
A: 195 ± 35 ml/week

Q: What about the Weight ([2]; OVX, PA1000 (1 gm/kg/d)) of the same compound?
A: 26 ± 1.3 gm

Q: And the Water left ([2]; OVX, PA1000)?
A: 250 ± 38 ml/week

Q: What about the Weight ([2]; Sham, PA250 (250 mg/kg/d)) of the same compound?
A: 27 ± 2.0 gm

Q: What about the Water left ([2]; Sham, PA250) of the same compound?
A: 200 ± 32 ml/week

Q: And the Weight ([2]; Sham, PA500 (500 mg/kg/d))?
A: 26 ± 2.4 gm

Q: And the Water left ([2]; Sham, PA500)?
A: 155 ± 35 ml/week

Q: What about the Weight ([2]; Sham, PA1000 (1 gm/kg/d)) of the same compound?
A: 26 ± 1.3 gm

Q: What about the Water left ([2]; Sham, PA1000) of the same compound?
A: 260 ± 45 ml/week

Q: What about the mice survival rate ([2]; female, C57BL/6, mouse, in vivo, po, 6 weeks) of the same compound?
A: 100%

Q: And the side effects ([2]; oral PA 6 weeks)?
A: no evidence of side effects

Q: And the “weight and water consumption vs vehicle-treated controls” value ([2]; oral PA 6 weeks)?
A: no difference

Q: And the “bone relative to tissue volume (BV/TV)” value [3]?
A: significant and dose-dependent increase

Q: And the “numbers of trabeculae (Tb.N)” value [3]?
A: increased

Q: What about the “thickness of trabeculae (Tb.Th)” value [3] of the same compound?
A: increased

Q: What about the “bone turnover (fluorochrome double labelling)” value ([4]; Sham and OVX mice, oral PA 6 weeks) of the same compound?
A: significant and dose-dependent increase in bone turnover

Q: And the “mineral apposition rates (MAR)” value ([4]; trabecular and cortical bone, vs vehicle)?
A: increased mineral apposition rates

Q: And the “mineralized bone (Von Kossa labelling)” value ([4]; vs untreated controls)?
A: higher levels of mineralized bone
